Target: T1, human glutathione transferase A1-1 (hGSTA1-1) (Homo sapiens, UniProt P08263)
T1 construct: gene GSTA1
T1 sequence (P08263 2-222): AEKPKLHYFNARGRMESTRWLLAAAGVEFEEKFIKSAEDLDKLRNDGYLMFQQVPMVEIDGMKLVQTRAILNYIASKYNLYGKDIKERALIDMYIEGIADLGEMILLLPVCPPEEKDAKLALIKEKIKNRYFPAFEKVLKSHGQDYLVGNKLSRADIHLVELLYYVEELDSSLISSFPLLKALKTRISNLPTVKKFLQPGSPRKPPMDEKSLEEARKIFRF
Test: CDNB/GSH conjugation assay with purified recombinant hGSTA1-1; IC50 and steady-state inhibition kinetics (Ki […] vs GSH, […] vs CDNB)
Type: biochemical
Text: Fisetin appears to be a strong inhibitor for hGSTA1-1

- IC50: 1200 ± 100 nM
Compound: O=c1c(O)c(-c2ccc(O)c(O)c2)oc2cc(O)ccc12 [fisetin]
